According to publication PMC8199500, “Novel Bis- and Mono-Pyrrolo[2,3-d]pyrimidine and Purine Derivatives: Synthesis, Computational Analysis and Antiproliferative Evaluation” (Molecules, 2021):

Experiments:
[1] = system: lung adenocarcinoma (A549) cells; test: MTT proliferation assay, A549 cells; type: cell-based, human
Description: (§1) Human carcinoma cell lines A549 (lung carcinoma), HeLa (cervical carcinoma), SW620 (colorectal adenocarcinoma, metastatic) and CFPAC-1 (pancreatic cancer, derived from metastatic: liver), and normal human foreskin (HFF-1) fibroblasts were obtained from the American Type Culture Collection (ATCC, Manassas, VA, USA). Cells were cultured in humidified atmosphere at 37 °C with 5% CO2. As growth medium, Dulbecco′s modified Eagle medium (DMEM) was used with the addition of fetal bovine serum (10%), L-glutamine (2 mM) and antibiotics: streptomycin ([…]) and penicillin (100 U/mL).
(§2) Cells were seeded onto 96-well microtiter plates at a seeding density of 3000 cells/well for carcinoma cell lines, and 5000 cells/well for normal human fibroblasts. The next day, cells were treated with test agents in five different concentrations (0.01–100 µM) and further incubated for 72 h. […] Following 72 h incubation, the MTT assay was performed and measured absorbances were transformed into percentage of cell growth as described previously. Results were obtained from three independent experiments. IC50 values were calculated using linear regression analysis and results were statistically analyzed by ANOVA, Tukey post-hoc test (p < 0.05).

[2] = system: cervical carcinoma (HeLa) cells; test: MTT proliferation assay, HeLa cells; type: cell-based, human; details: 72 h incubation
Description: as §1, §2

[3] = system: ductal pancreatic adenocarcinoma (CFPAC-1) cells; test: MTT proliferation assay, CFPAC-1 cells; type: cell-based, human
Description: as §1, §2

[4] = system: metastatic colorectal adenocarcinoma (SW620) cells; test: MTT proliferation assay, SW620 cells; type: cell-based, human
Description: as §1, §2

[5] = system: normal human foreskin fibroblasts (HFF-1); test: MTT proliferation assay, normal fibroblasts HFF-1; type: cell-based; details: 72 h incubation
Description: as §1, §2

[6] = Homo sapiens, A549, 72 h incubation
[7] = Homo sapiens, CFPAC-1, 72 h incubation
[8] = Homo sapiens, SW-620, 72 h incubation

Compound | IC50 ([1]; 72 h incubation) | IC50 [2] | IC50 ([3]; 72 h incubation) | IC50 ([4]; 72 h incubation) | IC50 [1, 6] | IC50 ([2]; Homo sapiens, HeLa) | IC50 [3, 7] | IC50 [4, 8] | IC50 [5] | melting point
{1-[2-(6-(Piperidin-1-yl)-9H-purin-9-yl)ethyl]-1H-1,2,3-triazol-4-yl}methyl ether [9d] | 73.1 ± 7.7 µM | 34.7 ± 12.1 µM | 56.8 ± 2.9 µM | 66.1 ± 3 µM | – | – | – | – | – | –
{1-[2-(6-Amino-9H-purin-9-yl)ethyl]-1H-1,2,3-triazol-4-yl}methyl ether [11d] | > 100 µM | > 100 µM | > 100 µM | > 100 µM | – | – | – | – | – | –
Clc1ncnc2c1ccn2CCn1cc(COc2ccc(-c3ccc(OCc4cn(CCn5ccc6c(Cl)ncnc65)nn4)cc3)cc2)nn1 [5b, 4,4′-Bis{[1-(2-(4-chloro-7H-pyrrolo[2,3-d]pyrimidin-7-yl)ethyl)-1H-1,2,3-triazol-4-yl]-methoxy}-1,1′-biphenyl] | – | – | – | – | 6.3 ± 1.2 µM | > 100 µM | > 100 µM | > 100 µM | 0.13 µM | –
C#CCCCc1cn(CCn2cnc3c(N4CCCCC4)ncnc32)nn1 [9g, 9-{2-[4-(pent-4-yn-1-yl)-1H-1,2,3-triazol-1-yl]ethyl}-6-(piperidin-1-yl)-9H-purine] | – | – | – | – | > 100 µM | 72.2 ± 9 µM | 75.2 ± 12.2 µM | > 100 µM | – | –
c1nc(N2CCCCC2)c2ccn(CCn3cc(COc4ccc(OCc5cn(CCn6ccc7c(N8CCCCC8)ncnc76)nn5)cc4)nn3)c2n1 [6a, 1,4-Bis{[1-(2-(4-(piperidin-1-yl)-7H-pyrrolo[2,3-d]pyrimidin-7-yl)ethyl)-1H-1,2,3-triazol-4-yl]methoxy}benzene] | – | – | – | – | > 100 µM | > 100 µM | > 100 µM | > 100 µM | – | 185 to 187 °C
{1-[2-(6-(Piperidin-1-yl)-9H-purin-9-yl)ethyl]-1H-1,2,3-triazol-4-yl}methyl ether [10d] | 87.3 ± 4.4 µM | 66.9 ± 11.2 µM | 52.5 ± 4.6 µM | 63.4 ± 3.6 µM | – | – | – | – | – | –
C#CCOc1ccc(OCc2cn(CCn3cnc4c(N5CCCCC5)ncnc43)nn2)cc1 [9e, 6-(piperidin-1-yl)-9-{2-[4-((4-(prop-2-yn-1-yloxy)phenoxy)methyl)-1H-1,2,3-triazol-1-yl]ethyl}-9H-purine] | – | – | – | – | 58.7 ± 10.2 µM | 17.1 ± 1.3 µM | 23.4 ± 4.2 µM | 35.7 ± 0.79 µM | – | 233 to 236 °C
6-(piperidin-1-yl)-9-{2-[4-(((4′-(prop-2-yn-1-yloxy)-[1,1′-biphenyl]-4-yl)oxy)methyl)-1H-1,2,3-triazol-1-yl]ethyl}-9H-purine [10f] | 62.1 ± 2.3 µM | 8.1 ± 2.2 µM | 6.5 ± 0.78 µM | 98 ± 1.3 µM | – | – | – | – | – | –
c1nc(N2CCCC2)c2ccn(CCn3cc(CCCc4cn(CCn5ccc6c(N7CCCC7)ncnc65)nn4)nn3)c2n1 [7c, 1,3-Bis{1-[2-(4-(pyrrolidin-1-yl)-7H-pyrrolo[2,3-d]pyrimidin-7-yl)ethyl]-1H-1,2,3-triazol-4-yl}propane] | – | – | – | – | > 100 µM | 80 ± 1.5 µM | 65.3 ± 5.7 µM | > 100 µM | – | 170 to 172 °C
Clc1ncnc2c1ccn2CCn1cc(COc2ccc(OCc3cn(CCn4ccc5c(Cl)ncnc54)nn3)cc2)nn1 [5a, 1,4-Bis{[1-(2-(4-chloro-7H-pyrrolo[2,3-d]pyrimidin-7-yl)ethyl)-1H-1,2,3-triazol-4-yl]methoxy}benzene] | – | – | – | – | > 100 µM | 77 ± 2.6 µM | > 100 µM | > 100 µM | – | –
c1nc(N2CCCCC2)c2ncn(CCn3cc(CCCc4cn(CCn5cnc6c(N7CCCCC7)ncnc65)nn4)nn3)c2n1 [9c, 1,3-Bis{1-[2-(6-(piperidin-1-yl)-9H-purin-9-yl)ethyl]-1H-1,2,3-triazol-4-yl}propane] | – | – | – | – | > 100 µM | 41.2 ± 0.99 µM | 53.9 ± 3.4 µM | > 100 µM | – | –
Nc1ncnc2c1ncn2CCn1cc(COc2ccc(OCc3cn(CCn4cnc5c(N)ncnc54)nn3)cc2)nn1 [11a, 1,4-Bis{[1-(2-(6-amino-9H-purin-9-yl)ethyl)-1H-1,2,3-triazol-4-yl]methoxy}benzene] | – | – | – | – | > 100 µM | > 100 µM | > 100 µM | > 100 µM | – | –
C#CCCCc1cn(CCn2ccc3c(Cl)ncnc32)nn1 [5g, 4-chloro-7-{2-[4-(pent-4-yn-1-yl)-1H-1,2,3-triazol-1-yl]ethyl}-7H-pyrrolo[2,3-d]pyrimidine] | – | – | – | – | > 100 µM | 75 ± 3.5 µM | 19.5 ± 4 µM | 80.5 ± 14.9 µM | – | –
Clc1ncnc2c1ccn2CCn1cc(CCCc2cn(CCn3ccc4c(Cl)ncnc43)nn2)nn1 [5c, 1,3-Bis{1-[2-(4-chloro-7H-pyrrolo[2,3-d]pyrimidin-7-yl)ethyl]-1H-1,2,3-triazol-4-yl}propane] | – | – | – | – | 99.6 ± 1.5 µM | 99.7 ± 5.9 µM | 74.9 ± 3.8 µM | > 100 µM | – | –
c1nc(N2CCCC2)c2ncn(CCn3cc(COc4ccc(OCc5cn(CCn6cnc7c(N8CCCC8)ncnc76)nn5)cc4)nn3)c2n1 [10a, 1,4-Bis{[1-(2-(6-(pyrrolidin-1-yl)-9H-purin-9-yl)ethyl)-1H-1,2,3-triazol-4-yl]methoxy}benzene] | – | – | – | – | 95 ± 3.2 µM | 60.6 ± 5.9 µM | 48.5 ± 1.6 µM | 98.3 ± 7.4 µM | – | –
c1nc(N2CCCCC2)c2ncn(CCn3cc(COc4ccc(-c5ccc(OCc6cn(CCn7cnc8c(N9CCCCC9)ncnc87)nn6)cc5)cc4)nn3)c2n1 [9b, 4,4′-Bis((1-(2-(6-(piperidin-1-yl)-9H-purin-9-yl)ethyl)-1H-1,2,3-triazol-4-yl)methoxy)-1,1′-biphenyl] | – | – | – | – | 12.3 ± 3.4 µM | 3.8 ± 0.81 µM | 8.1 ± 1.3 µM | 5.2 ± 2.2 µM | 0.79 µM | –
c1nc(N2CCCCC2)c2ncn(CCn3cc(COc4ccc(OCc5cn(CCn6cnc7c(N8CCCCC8)ncnc76)nn5)cc4)nn3)c2n1 [9a, 1,4-Bis{[1-(2-(6-(piperidin-1-yl)-9H-purin-9-yl)ethyl)-1H-1,2,3-triazol-4-yl]methoxy}benzene] | – | – | – | – | 53.5 ± 8 µM | 16.2 ± 0.05 µM | 9.1 ± 1.3 µM | 43.5 ± 4.4 µM | 0.76 µM | –
C#CCOCc1cn(CCn2cnc3c(N)ncnc32)nn1 [11h, 6-amino-9-{2-[4-((prop-2-yn-1-yloxy)methyl)-1H-1,2,3-triazol-1-yl]ethyl}-9H-purine] | – | – | – | – | > 100 µM | > 100 µM | > 100 µM | > 100 µM | – | 191 to 193 °C
{1-[2-(4-Chloro-7H-pyrrolo[2,3-d]pyrimidin-7-yl)ethyl]-1H-1,2,3-triazol-4-yl}methyl ether [5d] | > 100 µM | > 100 µM | 36.5 ± 3.9 µM | 53.5 ± 4.8 µM | – | – | – | – | – | –
C#CCOc1ccc(OCc2cn(CCn3cnc4c(N)ncnc43)nn2)cc1 [11e, 6-amino-9-{2-[4-((4-(prop-2-yn-1-yloxy)phenoxy)methyl)-1H-1,2,3-triazol-1-yl]ethyl}-9H-purine] | – | – | – | – | > 100 µM | > 100 µM | > 100 µM | > 100 µM | – | > 280 °C
{1-[2-(4-(Pyrrolidin-1-yl)-7H-pyrrolo[2,3-d]pyrimidin-7-yl)ethyl]-1H-1,2,3-triazol-4-yl}methyl ether [7d] | > 100 µM | > 100 µM | > 100 µM | > 100 µM | – | – | – | – | – | –
c1nc(N2CCCCC2)c2ccn(CCn3cc(COc4ccc(-c5ccc(OCc6cn(CCn7ccc8c(N9CCCCC9)ncnc87)nn6)cc5)cc4)nn3)c2n1 [6b, 4,4′-Bis{[1-(2-(4-(piperidin-1-yl)-7H-pyrrolo[2,3-d]pyrimidin-7-yl)ethyl)-1H-1,2,3-triazol-4-yl]methoxy}-1,1′-biphenyl] | – | – | – | – | 53.9 ± 2.1 µM | 68.5 ± 3.2 µM | 17.4 ± 6.3 µM | 24.7 ± 8.7 µM | – | 137 to 139 °C
c1nc(N2CCCC2)c2ccn(CCn3cc(COc4ccc(-c5ccc(OCc6cn(CCn7ccc8c(N9CCCC9)ncnc87)nn6)cc5)cc4)nn3)c2n1 [7b, 4,4′-Bis{[1-(2-(4-(pyrrolidin-1-yl)-7H-pyrrolo[2,3-d]pyrimidin-7-yl)ethyl)-1H-1,2,3-triazol-4-yl]methoxy}-1,1′-biphenyl] | – | – | – | – | 69 ± 1.2 µM | 54.6 ± 5.2 µM | 77.4 ± 3.5 µM | > 100 µM | – | 187 to 189 °C
C#CCCCc1cn(CCn2cnc3c(N)ncnc32)nn1 [11g, 6-Amino-9-{2-[4-(pent-4-yn-1-yl)-1H-1,2,3-triazol-1-yl]ethyl}-9H-purine] | – | – | – | – | > 100 µM | > 100 µM | > 100 µM | > 100 µM | – | 226 to 228 °C
